Source: paper PMC6348444, “New Water-Soluble Copper(II) Complexes with Morpholine–Thiosemicarbazone Hybrids: Insights into the Anticancer and Antibacterial Mode of Action” (Journal of Medicinal Chemistry, 2018)
Converted amounts (≈) assume the structure as drawn. Like-named read-outs stand apart in the source and are kept apart here. One block for each compound: values may come before it.

Columns and labels:
[1] = system: Staphylococcus aureus CECT 86 (ATCC 12600); experiment: MIC microdilution, S. aureus; assay type: cell-based; settings: planktonic cells; for MIC50 / MIC: Staphylococcus aureus; for MIC50 / S. aureus MIC50: growth inhibited at 50%; for MIC / S. aureus MIC100: lowest concentration completely inhibiting growth; for MIC: read-out: S. aureus MIC100
Experimental: (§1) Wild-type P. aeruginosa PAO1 strain CECT 4122 (ATCC 15692) and S. aureus CECT 86 (ATCC 12600) were obtained from the Spanish Type Culture Collection (CECT). All strains were routinely cultivated in TSB medium (Sharlab, Spain) at 37 °C. MIC assays were determined by the microdilution method using TSB broth following the method described by the Clinical and Laboratory standards Institute.[94] In brief, compounds were diluted in a 96-well microtiter plate (tissue culture-treated polystyrene; […]

[2] = system: Pseudomonas aeruginosa PAO1 CECT 4122 (ATCC 15692); experiment: MIC microdilution, P. aeruginosa; assay type: cell-based; settings: planktonic cells; for MIC50 / MIC: Pseudomonas aeruginosa; for MIC50 / P. aeruginosa MIC50: growth inhibited at 50%; for MIC / P. aeruginosa MIC100: lowest concentration completely inhibiting growth; for MIC: read-out: P. aeruginosa MIC100
Experimental: as §1

[3] = system: HEK293 cells; experiment: MTT cytotoxicity assay, HEK293; assay type: cell-based, human; settings: for IC50: MTT assay, 72 h exposure, noncancerous cells; for SF (selectivity factor): IC50(HEK293)/IC50(A2780)
[4] = system: A2780 cells; experiment: MTT cytotoxicity assay, A2780; assay type: cell-based, human
[5] = system: A2780cisR cells; experiment: MTT cytotoxicity assay, A2780cisR; assay type: cell-based, human; settings: for IC50: MTT assay, 72 h exposure, cisplatin-resistant A2780cisR, read-out: IC50 A2780cis; for RF (resistance factor): IC50(A2780cisR)/IC50(A2780)
[6] = n-octanol/water distribution coefficient, shake-flask; assay type: physicochemical; settings: n-octanol/buffered aqueous solution, pH 7.40, UV-vis; for logD: pH 7.4, read-out: log D7.4
Experimental: The titrations were carried out under a nitrogen atmosphere.

[7] = T = 298 K, I = 0.10 M (KCl)
[8] = Cyclic voltammetry, redox potentials; assay type: physicochemical; settings: first reduction step
Experimental: To assess the redox properties of 1-6, detailed electrochemical and spectroscopic studies in various solvents were performed using cyclic voltammetry as well as EPR-spectroelectrochemistry. Additionally, the UV-vis spectra of 1-5 were measured (Figure S8). […] The second reduction step occurred at -1.8 V versus Fc^+/Fc (-1.16 V vs NHE) and was less reversible, indicating a ligand-based reduction. […] In aqueous solutions, the reduction potentials shifted to the less negative values, and reduction was less reversible as shown for 2 in Figure S10. […] Cyclic voltammetric experiments were performed as described previously.[46] The cyclic voltammograms were measured in the cathodic region in different solvents (DMSO, methanol, DMSO/H2O). The analytical purity grade LiClO4 (Sigma-Aldrich) and distilled and deionized water were used for preparation of 1 mM aqueous solutions of the investigated complexes 1-6. EPR spectra were recorded with the EMX plus. In situ UV-vis-NIR spectroelectrochemical measurements were performed on a spectrometer (Avantes, Model AvaSpec-2048x14-USB2 in the spectroelectrochemical cell kit ([…]3)) with the Pt-microstructured honeycomb working electrode, purchased from Pine Research Instrumentation. The cell was positioned in the CUV-UV Cuvette Holder (Ocean Optics) connected to the diode-array UV-vis-NIR spectrometer by optical fibers. UV-vis-NIR spectra were processed using the AvaSoft 7.7 software package. Halogen and deuterium lamps were used as light sources (Avantes, Model AvaLight-DH-S-BAL). The in situ EPR spectroelectrochemical experiments were carried out under an argon atmosphere in the EPR flat cell equipped with a large platinum mesh working electrode. The freshly prepared solutions were carefully purged with argon and the electrolytic cell was polarized in the galvanostatic mode directly in the cylindrical EPR cavity TM-110 (ER 4103 TM), and the EPR spectra were measured in situ.

[9] = system: A2780 cells; experiment: Cellular accumulation of Cu by ICP-MS; assay type: cell-based, human; settings: 24 h exposure, 1 μM
Source text: The ability of anticancer drugs to penetrate biological membranes, tissues, and barriers underlies their biological, pharmacokinetic, and metabolic properties. These properties can be predicted by calculating physicochemical characteristics of drug candidates using molecular descriptors.[30] […] The results are shown in Table S7 in the Supporting Information. On the basis of the calculated physicochemical parameters, we determined if novel compounds belonged to the drug-like chemical space, which is commonly defined by the well-known Lipinski rule, or to the known drug space (KDS), which includes all small compounds in medical use.[31] […] Following the calculations, we determined the lipophilicity of all compounds experimentally (log D7.4, Tables 1 and 2). It is known that cancer cells accumulate hydrophilic compounds to a smaller extent relative to hydrophobic compounds, thereby affecting their activity. […] As expected, proligands were more lipophilic than the corresponding Cu(II) species, which are positively charged at physiological pH (Figure 3b). […] The lipophilicity of 2–5 increased in the following order 4 < 2 < 3 < 5, and correlated well with their cytotoxicity in cancer cells, with the exception of 3. Subsequently, we determined the total cellular accumulation of Cu in A2780 cells by ICP–MS upon 24 h exposure to 1–6 in comparison with CuCl2 (Table 2). […] The accumulation increased in the order 6 < 1 < 3 < 4 < 2 < 5.
Cellular accumulation of 1–6 was determined in A2780 cells. Cells were seeded into Cellstar 6-well plates (Greiner Bio-one) at a density of 60 × 10^4 cells/well (2 mL per well). After the cells were allowed to resume exponential growth for 24 h, they were exposed to 1–6 at 1 μM for 24 h at 37 °C. The cells were washed twice with 1 mL of PBS and lysed with RIPA lysis buffer for 5–10 min at 4 °C. The cell lysates were scraped from the wells and transferred to separate 1.5 mL microtubes. The supernatant was then collected after centrifugation (13 000 rpm, 4 °C for 15 min) and total protein content of each sample was quantified via Bradford’s assay. Cell lysates were transferred to 2 mL glass vials and then digested with ultrapure 65% HNO3 at 100 °C for 24 h. The resulting solution was diluted to 1 mL (2–4% v/v HNO3) with ultrapure Milli-Q water. Cu content of each sample was quantified by ICP–MS. In was used as an internal standard. Cu and In were measured at m/z 64 and m/z 115, respectively. Metal standards for calibration curve (0, 0.5, 1, 2, 5, 10, 20, and 40 ppb) were freshly prepared before each measurement. All readings were made in triplicates in He mode. For temperature-dependent cellular accumulation experiments, A2780 cells were seeded into 35 n 10 mm tissue culture plates at a density of 60 0 10^4 cells/plate. After the cells were allowed to resume exponential growth for 24 h, they were exposed to 2 at 3 μM for 10, 30, 60, and 120 min at 37 and 4 °C. The subsequent analysis was performed as described above. For energy-dependent experiments, A2780 cells were seeded into 35 5 10 mm tissue culture plates at a density of 1 0 10^6 cells/plate. After the cells were allowed to resume exponential growth for 24 h, they were preincubated with oligomycin (5 μM) for 1 or 4 h or with cycloheximide (100 μM) for 4 h and further co-incubated with 3 μM of 2 at 37 °C. To induce total starvation, after the cells were allowed to resume exponential growth for 24 h, RPMI media was replaced with HBSS, and cells were preincubated in HBSS for 1 h and further incubated with 3 μM of 2 for 1 h at 37 °C. The subsequent analysis was performed as described above.

[10] = Homo sapiens, A2780, 72 h exposure

MIC50 [1]: 100 µg/mL (≈ 358 µM)
MIC [1]: > 400 µg/mL
logD [6]: 0.46
MIC50 [2]: > 500 µg/mL
MIC [2]: > 500 µg/mL
SMILES: NC(=S)NN=Cc1ccc(CN2CCOCC2)cn1 [HL^1, 5-(Morpholinomethyl)pyridine-2-carboxaldehyde Thiosemicarbazone]
IC50 ([3]; Homo sapiens, HEK293): 9100 ± 1700 nM
IC50 [4, 10]: 7600 ± 1900 nM
IC50 ([5]; Homo sapiens): 13000 ± 1000 nM

MIC50 [1]: 10 µg/mL (≈ 32.5 µM)
MIC [1]: 400 µg/mL (≈ 1300 µM)
logD [6]: 0.51
MIC50 [2]: 70 µg/mL (≈ 228 µM)
MIC [2]: 100 µg/mL (≈ 325 µM)
SMILES: CN(C)C(=S)N/N=C/c1ccc(CN2CCOCC2)cn1 [HL^2, 5-(Morpholinomethyl)pyridine-2-carboxaldehyde 4,4-Dimethyl-3-thiosemicarbazone]
IC50 ([3]; Homo sapiens, HEK293): 30 ± 5 nM
IC50 [4, 10]: 10 ± 1 nM
IC50 ([5]; Homo sapiens): 35 ± 6 nM

logβ ([7]; EPR): 10.22(1)
logβ ([7]; UV-vis via CT bands): 10.42(1)
logβ ([7]; UV-vis via d-d bands): 10.45(1)
logβ ([7]; pH-metry): 10.45(4)
SMILES: NC(=NN=Cc1ccc(CN2CCOCC2)cn1)[S][Cu][OH] [[CuLH41]]

logβ ([7]; EPR): 24.00(1)
logβ ([7]; UV-vis via CT bands): 24.00(1)
logβ ([7]; UV-vis via d-d bands): 23.96(1)
logβ ([7]; pH-metry): 24.09(3)
SMILES: NC(=NN=Cc1ccc(C[NH+]2CCOCC2)cn1)[S][Cu+] [[CuLH]2+]

logβ ([7]; determined via EDTA displacement study): 19.04(2)
SMILES: NC(=NN=Cc1ccc(CN2CCOCC2)cn1)[S][Cu+] [[CuL]+]

Continued, compound first:

SMILES: O=C(O)c1cn(C2CC2)c2cc(N3CCNCC3)c(F)cc2c1=O [CPX, ciprofloxacin, reference compound]
MIC50 [1]: 0.5 µg/mL (≈ 1.51 µM)
MIC [1]: 1 µg/mL (≈ 3.02 µM)
MIC50 [2]: 0.5 µg/mL (≈ 1.51 µM)
MIC [2]: 2 µg/mL (≈ 6.04 µM)

SMILES: S=C(NN=Cc1ccc(CN2CCOCC2)cn1)Nc1ccccc1 [HL^5, 5-(Morpholinomethyl)pyridine-2-carboxaldehyde 4-Phenylthiosemicarbazone]
IC50 ([3]; Homo sapiens, HEK293): 670 ± 60 nM
IC50 [4, 10]: 310 ± 80 nM
MIC50 [1]: 10 µg/mL (≈ 28.1 µM)
MIC [1]: 300 µg/mL (≈ 844 µM)
IC50 ([5]; Homo sapiens): 1100 ± 200 nM
logD [6]: ≥ 2
MIC50 [2]: > 500 µg/mL
MIC [2]: > 500 µg/mL

SMILES: CSC(=N)NN=Cc1ccc(CN2CCOCC2)cn1 [HL^6, 5-(Morpholinomethyl)pyridine-2-carboxaldehyde S-Methylisothiosemicarbazone]
IC50 ([3]; Homo sapiens, HEK293): 89000 ± 2000 nM
IC50 [4, 10]: 157000 ± 21000 nM
MIC50 [1]: > 500 µg/mL
MIC [1]: > 500 µg/mL
S. aureus MIC50 [1]: >500 µg/mL
IC50 ([5]; Homo sapiens): 426000 ± 44000 nM
logD [6]: 0.84
MIC50 [2]: > 500 µg/mL
MIC [2]: > 500 µg/mL

SMILES: N.N.[Cl][Pt][Cl] [cisplatin, reference compound]
IC50 ([4]; 72 h exposure): 440 ± 130 nM
RF (resistance factor) [5]: 10.5
IC50 [5]: 4600 ± 300 nM

SMILES: [Cl][Cu][S]C(=NN=Cc1ccc(CN2CCOCC2)cn1)N1CCOCC1 [complex 4, [Cu(L^4)Cl]]
SF (selectivity factor) [3]: 3.0
IC50 [3]: 240 ± 20 nM
E1/2 Red1 (DMSO) vs Fc+/Fc ([8]; DMSO, vs Fc+/Fc): –0.80 V
E1/2 Red1 (DMSO) vs NHE ([8]; DMSO, vs NHE (in brackets)): –0.16 V
E1/2 Red1 (MeOH) vs Fc+/Fc ([8]; MeOH, vs Fc+/Fc): –0.49 V
E1/2 Red1 (MeOH) vs NHE ([8]; MeOH, vs NHE (in brackets)): +0.15 V
IC50 ([4]; 72 h exposure): 80 ± 10 nM
cellular accumulation A2780 [9]: 3.2 ± 0.7 nmol Cu/mg protein
S. aureus MIC50 [1]: 5 µg/mL
S. aureus MIC100 [1]: 10 µg/mL
RF (resistance factor) [5]: 3.3
IC50 [5]: 260 ± 40 nM
log D7.4 [6]: +0.12 ± 0.01
P. aeruginosa MIC50 [2]: 100 µg/mL
P. aeruginosa MIC100 [2]: 400 µg/mL

SMILES: CSC(=NN=Cc1ccc(CN2CCOCC2)cn1)[NH][Cu][Cl] [complex 6, [Cu(L^6)Cl]]
SF (selectivity factor) [3]: 1.7
IC50 [3]: 72000 nM
IC50 ([4]; 72 h exposure): 43000 ± 3000 nM
cellular accumulation A2780 [9]: 0.47 ± 0.08 nmol Cu/mg protein
S. aureus MIC100 [1]: NA (NA denotes no antibacterial activity detected (>500 μg/mL))
RF (resistance factor) [5]: 1.4
IC50 [5]: 62000 ± 6000 nM
log D7.4 [6]: –0.23 ± 0.01
P. aeruginosa MIC50 [2]: 200 µg/mL
P. aeruginosa MIC100 [2]: NA (NA denotes no antibacterial activity detected (>500 μg/mL))
